Source: PMC11249646, “Small-Molecule Disruptors of the Interaction between Calcium- and Integrin-Binding Protein 1 and Integrin αIIbβ3 as Novel Antiplatelet Agents” (ACS Pharmacology & Translational Science, 2024)
pIC50: −log10 of the molar value.

These molecules were tested against T1, CIB1 and αIIb interaction (CIB1-GST : F-αIIb peptide) (Homo sapiens, UniProt Q99828) (assay: FP assay, 1536-well qHTS format (primary and confirmatory screen)). Conditions: confirmatory screen.
T1 construct: made in house; host or cells: BL-21 plus RIL cells (E. coli)
T1 sequence (Q99828 1-191): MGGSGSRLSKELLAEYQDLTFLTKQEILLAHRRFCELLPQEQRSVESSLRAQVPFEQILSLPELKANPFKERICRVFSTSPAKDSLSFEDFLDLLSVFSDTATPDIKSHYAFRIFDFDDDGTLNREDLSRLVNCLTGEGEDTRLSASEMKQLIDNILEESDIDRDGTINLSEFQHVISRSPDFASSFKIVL
Format: binding

SMILES | CONFIRMATORY SCREEN Efficacy (%) | Efficacy (%) (confirmatory screen)
Fc1ccc(NC(=S)Nc2nnc(-c3ccncc3)s2)cc1C(F)(F)F.O=C(O)C(F)(F)F [NCGC00241743-01] | -35% | 
O=C(O)C(F)(F)F.O=C(O)c1ccc(O)c2ncc(N3CCC(N4CCOCC4)C3)cc12 (stereo not shown) [NCGC00241757-01] | -17% | 
O=C(O)C(F)(F)F.O=C(O)c1ccc(O)c2ncc(-c3n[nH]nc3-c3ccccc3)cc12 [NCGC00241764-01] |  | -23%
CC1=C[C@@H]2[C@H]([C@@H](O)C[C@@]3(C)[C@H]2C[C@@H](C)[C@]3(O)C(=O)CO)[C@@]2(C)Cc3cnn(-c4ccccc4)c3C=C12 [NCGC00242505-01] |  | -46%
CCOC(=O)C1CCN(C(=O)C(C)(C)NC(=O)Nc2ccc(C#N)cc2)CC1.O=C(O)C(F)(F)F [NCGC00242565-01] |  | -28%

Same assay, conditions: confirmatory screen, YES/NO

SMILES | Confirm? (confirmatory screen)
O=C(O)C(F)(F)F.O=C(O)c1ccc(O)c2ncc(-c3n[nH]nc3-c3ccccc3)cc12 [NCGC00241764-01] | YES
CC1=C[C@@H]2[C@H]([C@@H](O)C[C@@]3(C)[C@H]2C[C@@H](C)[C@]3(O)C(=O)CO)[C@@]2(C)Cc3cnn(-c4ccccc4)c3C=C12 [NCGC00242505-01] | YES
CCOC(=O)C1CCN(C(=O)C(C)(C)NC(=O)Nc2ccc(C#N)cc2)CC1.O=C(O)C(F)(F)F [NCGC00242565-01] | YES

Same assay, conditions: confirmatory screen, qHTS curve class

SMILES | CONFIRMATORY SCREEN Curve Class
Fc1ccc(NC(=S)Nc2nnc(-c3ccncc3)s2)cc1C(F)(F)F.O=C(O)C(F)(F)F [NCGC00241743-01] | 4
O=C(O)C(F)(F)F.O=C(O)c1ccc(O)c2ncc(N3CCC(N4CCOCC4)C3)cc12 (stereo not shown) [NCGC00241757-01] | 4

Same assay, conditions: confirmatory screen, qHTS curve class; negative sign = inhibitory curve

SMILES | Curve Class (confirmatory screen)
O=C(O)C(F)(F)F.O=C(O)c1ccc(O)c2ncc(-c3n[nH]nc3-c3ccccc3)cc12 [NCGC00241764-01] | -1.4
CC1=C[C@@H]2[C@H]([C@@H](O)C[C@@]3(C)[C@H]2C[C@@H](C)[C@]3(O)C(=O)CO)[C@@]2(C)Cc3cnn(-c4ccccc4)c3C=C12 [NCGC00242505-01] | -1.4
CCOC(=O)C1CCN(C(=O)C(C)(C)NC(=O)Nc2ccc(C#N)cc2)CC1.O=C(O)C(F)(F)F [NCGC00242565-01] | -1.4

Same assay, conditions: confirmatory screen; read-out: IC50 [μM] (confirmatory screen)

SMILES | IC50
O=C(O)C(F)(F)F.O=C(O)c1ccc(O)c2ncc(-c3n[nH]nc3-c3ccccc3)cc12 [NCGC00241764-01] | 39.8 µM
CC1=C[C@@H]2[C@H]([C@@H](O)C[C@@]3(C)[C@H]2C[C@@H](C)[C@]3(O)C(=O)CO)[C@@]2(C)Cc3cnn(-c4ccccc4)c3C=C12 [NCGC00242505-01] | 15.8 µM
CCOC(=O)C1CCN(C(=O)C(C)(C)NC(=O)Nc2ccc(C#N)cc2)CC1.O=C(O)C(F)(F)F [NCGC00242565-01] | 7.9 µM

Same assay, conditions: qHTS FP screen hits, Table S2; negative = inhibition

SMILES | Efficacy (%)
Fc1ccc(NC(=S)Nc2nnc(-c3ccncc3)s2)cc1C(F)(F)F.O=C(O)C(F)(F)F [NCGC00241743-01] | -41%
O=C(O)C(F)(F)F.O=C(O)c1ccc(O)c2ncc(N3CCC(N4CCOCC4)C3)cc12 (stereo not shown) [NCGC00241757-01] | -22%
O=C(O)C(F)(F)F.O=C(O)c1ccc(O)c2ncc(-c3n[nH]nc3-c3ccccc3)cc12 [NCGC00241764-01] | -21%
CCOC(=O)C1CCN(C(=O)C(C)(C)NC(=O)Nc2ccc(C#N)cc2)CC1.O=C(O)C(F)(F)F [NCGC00242565-01] | -22%

Same assay, conditions: qHTS FP screen hits, Table S2; one class per curve where COUNT > 1; negative sign = inhibitory curve

SMILES | Curve Class
Fc1ccc(NC(=S)Nc2nnc(-c3ccncc3)s2)cc1C(F)(F)F.O=C(O)C(F)(F)F [NCGC00241743-01] | -2.2

Same assay, conditions: qHTS FP screen hits, Table S2; read-out: IC50

SMILES | pIC50
Fc1ccc(NC(=S)Nc2nnc(-c3ccncc3)s2)cc1C(F)(F)F.O=C(O)C(F)(F)F [NCGC00241743-01] | 4.65
O=C(O)C(F)(F)F.O=C(O)c1ccc(O)c2ncc(N3CCC(N4CCOCC4)C3)cc12 (stereo not shown) [NCGC00241757-01] | 4.45
O=C(O)C(F)(F)F.O=C(O)c1ccc(O)c2ncc(-c3n[nH]nc3-c3ccccc3)cc12 [NCGC00241764-01] | 4.55
CCOC(=O)C1CCN(C(=O)C(C)(C)NC(=O)Nc2ccc(C#N)cc2)CC1.O=C(O)C(F)(F)F [NCGC00242565-01] | 5.66

Same assay, conditions: qHTS primary screen hits, Table S2; negative = inhibition

SMILES | Efficacy (%)
CC1=C[C@@H]2[C@H]([C@@H](O)C[C@@]3(C)[C@H]2C[C@@H](C)[C@]3(O)C(=O)CO)[C@@]2(C)Cc3cnn(-c4ccccc4)c3C=C12 [NCGC00242505-01] | -30%

Same assay, conditions: qHTS primary screen hits, Table S2; read-out: IC50

SMILES | pIC50
CC1=C[C@@H]2[C@H]([C@@H](O)C[C@@]3(C)[C@H]2C[C@@H](C)[C@]3(O)C(=O)CO)[C@@]2(C)Cc3cnn(-c4ccccc4)c3C=C12 [NCGC00242505-01] | 4.42

These molecules were tested against T2, GST-CIB1 : F-scrambled peptide (Homo sapiens, UniProt Q99828) (assay: FP scrambled-peptide counter screen, 1536-well format). Conditions: counterscreen.
T2 construct: made in house; host or cells: BL-21 plus RIL cells (E. coli)
T2 sequence (Q99828 1-191): T1 sequence (Q99828 1-191)
Format: binding

SMILES | COUNTERSCREEN Efficacy (%) | Efficacy (%) (counterscreen)
Fc1ccc(NC(=S)Nc2nnc(-c3ccncc3)s2)cc1C(F)(F)F.O=C(O)C(F)(F)F [NCGC00241743-01] | 39% | 
O=C(O)C(F)(F)F.O=C(O)c1ccc(O)c2ncc(N3CCC(N4CCOCC4)C3)cc12 (stereo not shown) [NCGC00241757-01] | -21% | 
O=C(O)C(F)(F)F.O=C(O)c1ccc(O)c2ncc(-c3n[nH]nc3-c3ccccc3)cc12 [NCGC00241764-01] |  | -33%
CC1=C[C@@H]2[C@H]([C@@H](O)C[C@@]3(C)[C@H]2C[C@@H](C)[C@]3(O)C(=O)CO)[C@@]2(C)Cc3cnn(-c4ccccc4)c3C=C12 [NCGC00242505-01] |  | -41%
CCOC(=O)C1CCN(C(=O)C(C)(C)NC(=O)Nc2ccc(C#N)cc2)CC1.O=C(O)C(F)(F)F [NCGC00242565-01] |  | -30%

Same assay, conditions: counterscreen, YES/NO

SMILES | Confirm? (counterscreen)
O=C(O)C(F)(F)F.O=C(O)c1ccc(O)c2ncc(-c3n[nH]nc3-c3ccccc3)cc12 [NCGC00241764-01] | YES

Same assay, conditions: counterscreen, qHTS curve class

SMILES | COUNTERSCREEN Curve Class
Fc1ccc(NC(=S)Nc2nnc(-c3ccncc3)s2)cc1C(F)(F)F.O=C(O)C(F)(F)F [NCGC00241743-01] | 4
O=C(O)C(F)(F)F.O=C(O)c1ccc(O)c2ncc(N3CCC(N4CCOCC4)C3)cc12 (stereo not shown) [NCGC00241757-01] | 4

Same assay, conditions: counterscreen, qHTS curve class; negative sign = inhibitory curve

SMILES | Curve Class (counterscreen)
O=C(O)C(F)(F)F.O=C(O)c1ccc(O)c2ncc(-c3n[nH]nc3-c3ccccc3)cc12 [NCGC00241764-01] | 4
CC1=C[C@@H]2[C@H]([C@@H](O)C[C@@]3(C)[C@H]2C[C@@H](C)[C@]3(O)C(=O)CO)[C@@]2(C)Cc3cnn(-c4ccccc4)c3C=C12 [NCGC00242505-01] | -1.2
CCOC(=O)C1CCN(C(=O)C(C)(C)NC(=O)Nc2ccc(C#N)cc2)CC1.O=C(O)C(F)(F)F [NCGC00242565-01] | -1.4

Same assay, conditions: counterscreen; read-out: IC50 [μM] (counterscreen)

SMILES | IC50
CC1=C[C@@H]2[C@H]([C@@H](O)C[C@@]3(C)[C@H]2C[C@@H](C)[C@]3(O)C(=O)CO)[C@@]2(C)Cc3cnn(-c4ccccc4)c3C=C12 [NCGC00242505-01] | 12.6 µM
CCOC(=O)C1CCN(C(=O)C(C)(C)NC(=O)Nc2ccc(C#N)cc2)CC1.O=C(O)C(F)(F)F [NCGC00242565-01] | 15.8 µM
